Experimental findings from patent US8546440B2, “Substituted bicyclic imidazole derivatives as gamma secretase modulators” (Janssen Pharmaceuticals, Inc., priority 2008, dated 2013) are described below.

Assay [1] concerns Aβtotal. In words: Screening for γ-secretase-modulating activity, Method 1: Aβtotal sandwich ELISA in supernatant of SKNBE2 cells carrying APP 695 wild type (Tables 12a, 12b). The assay is classed as cell-based. The method in brief:
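SKNBE2 cells expressing wild-type APP 695 were plated a day ahead, then exposed to compound in Ultraculture with 1% glutamine for 18 hours. Supernatant Aβtotal captured on 6E10 overnight at 4° C, detected with biotinylated 4G8 and streptavidin-peroxidase with a fluorogenic substrate. IC50 from 4-parameter dose-response fits.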
For orientation: In an ELISA, binding on a coated surface is turned into a signal by an enzyme label.

The test system of assay [2] is Aβtotal. In words: Screening for γ-secretase-modulating activity, Method 2: Aβtotal Alphalisa in supernatant of SKNBE2 cells carrying APP 695 wild type (Table 12c). The note with it: Method 2, Table 12c, incubated overnight. In kind it is cell-based. The method in brief: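 SKNBE2 cells expressing wild-type APP695, 10^4 cells/well, exposed to compound overnight at 37 °C; secreted Aβ42 and Aβtotal in supernatant measured by AlphaLISA sandwich immunoassays (Aβ42: C-terminal/N-terminal antibodies; Aβtotal: N-terminal/4G8). IC50 from 4-parameter fit of % untreated control.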
A general note: In Alpha technology, singlet oxygen from a donor bead excites a nearby acceptor bead.

Setting [3] is: Homo sapiens, Method 1, Table 12a, SKNBE2 cells carrying APP 695 wild type, compounds 18 hours, ELISA, curve top and bottom fixed to 100 and 0, hill slope 1.
Where [4] appears, read: Homo sapiens, Table 12b, Method 1, SKNBE2 cells carrying APP 695 wild type, cell supernatant ELISA, averaged IC50 values.

For orientation: IC50 means the concentration that inhibits the measured activity by half. Lower therefore signals greater potency in that assay. `COc1cccc(-c2cn3cccc(Nc4ccc(-n5cnc(C)c5)c(OC)c4)c3n2)c1` [Compound 33]: the IC50 was above 3 µM with Aβtotal [1] (setting [3]), above 3.02 µM in the assay on Aβtotal [1] (setting [4]) and 5.75 µM in the assay with Aβtotal [2] (Homo sapiens).

In the case of `COc1cc(Nc2cccn3c(Cl)c(-c4ccc(F)cc4)nc23)ccc1-n1cnc(C)c1` [Compound 2], the IC50 in the assay on Aβtotal [1] (setting [3]) is above 3 µM; in the assay on Aβtotal [1] (setting [4]), above 3.02 µM.

With `COc1nc(Nc2cccn3c(C)c(-c4ccccc4C(F)(F)F)nc23)ccc1-n1cnc(C)c1` [Compound 138], the IC50 in the assay with Aβtotal [1] (Table 12b, Method 1, SKNBE2 cells carrying APP 695 wild type, cell supernatant ELISA, averaged IC50 values) is above 3.02 µM; in the assay on Aβtotal [2], 5.89 µM.

Regarding `COc1cc(Nc2cccn3cc(C)nc23)ccc1-n1cnc(C)c1` [Compound 50], the results for the IC50 in the assay on Aβtotal [1] (setting [3]), in the assay on Aβtotal [1] (setting [4]) and in the assay on Aβtotal [2] (Homo sapiens) were above 3 µM, above 5.01 µM and above 10 µM, respectively.

As for `COc1cc(Nc2cccn3c(C)c(-c4c(F)cccc4F)nc23)ccc1-n1cnc(C)c1` [Compound 27], the IC50 in the assay on Aβtotal [1] (setting [3]) was above 3 µM; in the assay with Aβtotal [1] (setting [4]), above 3.02 µM.

As to `Cc1ncn(-c2ccc(Nc3cccn4cc(-c5ccccc5C)nc34)cc2)n1` [Compound 71], the IC50 is above 3 µM in the assay on Aβtotal [1] (setting [3]) and above 3.02 µM in the assay on Aβtotal [2] (Homo sapiens).

On to `COc1cc(Nc2cccn3cc(C4CCOCC4)nc23)ccc1-n1cnc(C)c1` [Compound 4], for which the 50% inhibitory concentration (IC50) in the assay on Aβtotal [1] (setting [3]) is above 3 µM; in the assay with Aβtotal [1] (setting [4]) it was above 3.02 µM; in the assay with Aβtotal [2] (Homo sapiens), above 10 µM.

Take `COc1cc(Nc2cccn3c(C)c(-c4ccccc4)nc23)ccc1-n1cnc(C)c1` [Compound 5]: the IC50 in the assay with Aβtotal [1] (setting [3]) was above 1 µM; in the assay on Aβtotal [1] (setting [4]), above 3.02 µM.

For the molecule `COc1cc(Nc2cccn3c(C)c(-c4ccccc4C(F)(F)F)nc23)ccc1-n1cnc(C)c1` [Compound 29], the IC50 with Aβtotal [1] (setting [3]) was above 1 µM; with Aβtotal [1] (setting [4]), above 10 µM; in the assay on Aβtotal [2] (Homo sapiens) it was 7.08 µM.

As for `COc1cc(Nc2cccn3c(C)c(-c4ccccc4Cl)nc23)ccc1-n1cnc(C)c1` [Compound 15], the values for the IC50 with Aβtotal [1] (setting [3]), in the assay on Aβtotal [1] (setting [4]) and in the assay on Aβtotal [2] (Homo sapiens) were above 3 µM, above 3.02 µM and 5.5 µM, respectively.

For `COc1cc(Nc2cccn3cc(-c4ccc(F)cc4)nc23)ccc1-n1cnc(C)c1` [Compound 1], the IC50 is above 5 µM in the assay on Aβtotal [1] (setting [3]), above 5.01 µM in the assay on Aβtotal [1] (setting [4]) and 7.41 µM in the assay with Aβtotal [2] (Homo sapiens).
